In ChEMBL document CHEMBL3301361, “Experimental in vitro DMPK and physicochemical data on a set of publicly disclosed compounds”:
≈ marks a conversion by molar mass, not a printed value.

Legend:
physchem [1] = assay: physchem
in vitro [2] = details: SD, HW or BN, rat, plasma
in vitro [3] = details: human, plasma
in vitro [4] = details: human
physchem [5] = details: octan-1-ol/water
in vitro [6] = details: human, hepatocytes
in vitro [7] = details: Beagle, dog, plasma
physchem [8] = assay: physchem; remark: listed apart in the source
in vitro [9] = details: hepatocytes
physchem [10] = details: pH 7.4 buffer

| Structure (SMILES) | fraction unbound at 5 h (in vitro [2]) | fraction unbound at 5 h (in vitro [3]; PPB) | logD (physchem [5]; pH 7.4, LogD7.4) | hepatocyte CLint (in vitro [6]) | fraction unbound at 5 h (in vitro [7]) | hepatocyte CLint (in vitro [9]) | further results |
| --- | --- | --- | --- | --- | --- | --- | --- |
| Cn1c(=O)c2nn[nH]c2n(C)c1=O | – | – | – | – | – | – | pKa (physchem [1]): 4.4 |
| CCCc1nc2c(C)cc(-c3nc4ccccc4n3C)cc2n1Cc1ccc(-c2ccccc2C(=O)O)cc1 | 0.0038 | 0.0077 | 2.21 | 3.98 µL/min/1e6 cells | 0.0175 | – | microsomal CLint (in vitro [4]; liver microsomes): < 3 µL/min/mg |
| CC(C)(N)C(=O)N[C@H](COCc1ccc(F)cc1F)C(=O)N1CCC2=NN(CC(F)(F)F)C(=O)[C@]2(Cc2ccccn2)C1 | 0.511 | – | – | 15.5 µL/min/1e6 cells | 0.454 | – | – |
| COc1ccnc(NC2CCN(C(=O)c3ccc(C#N)cc3)CC2)c1 | – | – | 1.73 | – | 0.0532 | – | pKa (physchem [8]): 7.1 |
| CCCc1c2nccc(Cl)c2cc2c(=O)cc(C(=O)O)oc12 | – | – | – | – | – | – | pKa (physchem [1]): 2.5 |
| O=C(O)c1cc(=O)c2cc(Cl)ccc2o1 | – | – | – | – | – | – | pKa (physchem [1]): < 2 |
| COc1ccc2c(=O)cc(C(=O)O)oc2c1 | – | – | – | – | – | – | pKa (physchem [1]): < 2 |
| O=C(O)COc1ccc(Cl)cc1CN1CCN(S(=O)(=O)c2ccccc2)CC1 | 0.132 | 0.0383 | 0.49 | – | 0.04 | – | pKa (physchem [8]): 6.8 |
| O=C(O)COc1ccc(Cl)cc1CN1CCN(S(=O)(=O)Cc2ccccc2)CC1 | 0.114 | 0.0067 | 0.33 | < 3 µL/min/1e6 cells | 0.0343 | – | – |
| O=C(O)COc1ccc(Cl)cc1CN1CCN(S(=O)(=O)c2ccc(F)cc2)CC1 | 0.089 | 0.0101 | 0.99 | < 3 µL/min/1e6 cells | 0.0768 | < 3 µL/min/1e6 cells | – |
| C[C@H]1CN(Cc2cc(Cl)ccc2OCC(=O)O)CCN1C(=O)Cc1ccc(Cl)cc1 | 0.0383 | – | – | < 3 µL/min/1e6 cells | 0.0262 | < 3 µL/min/1e6 cells | fraction unbound at 5 h (in vitro [3]): 0.0187; microsomal CLint (in vitro [4]; liver microsomes): < 3 µL/min/mg |
| N#Cc1cccc(-c2cc(C(F)(F)F)ccc2OCC(=O)O)c1 | 0.035 | 0.0139 | 0.05 | < 3 µL/min/1e6 cells | 0.0358 | < 3 µL/min/1e6 cells | microsomal CLint (in vitro [4]; liver microsomes): < 3 µL/min/mg |
| CCS(=O)(=O)c1ccc(-c2cc(C(F)(F)F)ccc2OC(C)(C)C(=O)O)c(C)c1 | – | – | – | – | – | – | pKa (physchem [1]): 3.2 |
| N#Cc1ccc(C(F)(F)F)nc1O[C@H](CCN)c1ccno1 | – | 0.557 | -0.49 | – | 0.535 | – | pKa (physchem [8]): 9.5 |
| O=C(O)/C=C(/c1ccccc1)C(F)(F)F | – | – | – | – | – | – | pKa (physchem [1]): 2.41 |
| CCN(C(=O)c1cnn(-c2ccccc2)c1NS(=O)(=O)c1ccc(-c2cnco2)cc1)C1CCCCC1 | 0.0057 | 0.013 | 1.46 | 9.5 µL/min/1e6 cells | 0.0025 | 35 µL/min/1e6 cells | microsomal CLint (in vitro [4]; liver microsomes): 137 µL/min/mg; solubility thermodynamic (physchem [10]): 204 µM (≈ 106 µg/mL) |
| CCCc1nn(C)c2c(=O)[nH]c(-c3cc(S(=O)(=O)N4CCN(C)CC4)ccc3OCC)nc12 | 0.0988 | 0.0447 | 2.8 | 16.6 µL/min/1e6 cells | 0.176 | > 150 µL/min/1e6 cells | microsomal CLint (in vitro [4]; liver microsomes): 132 µL/min/mg |
| N#Cc1cccc(S(=O)(=O)NC[C@@H](O)CN2CCC(Oc3ccc(Cl)c(Cl)c3)CC2)c1 | – | – | – | – | – | – | pKa (physchem [1]): 10.1 |
| CC(C)(C)NC(=O)NCCN1CC(NC(=O)c2cc(Cl)cc(Cl)c2)C1 | 0.101 | 0.0928 | – | 3.31 µL/min/1e6 cells | 0.0784 | – | – |
| CC(C)(C)NC(=O)NCCN1CCN(CC(=O)NC23CC4CC(CC(C4)C2)C3)CC1 | – | – | – | 33.9 µL/min/1e6 cells | 0.24 | – | – |
| CC[C@H](CO)Nc1nc(SCc2ccccc2)nc2[nH]c(=O)sc12 | – | 0.0016 | – | 10 µL/min/1e6 cells | 0.0053 | – | – |
| O=C(NCC12CC3CC(CC(C3)C1)C2)c1cc(CN2CCNCC2)ccc1Cl | 0.062 | 0.0872 | 1.84 | 4.46 µL/min/1e6 cells | 0.157 | 4 µL/min/1e6 cells | microsomal CLint (in vitro [4]; microsomes): 18 µL/min/mg; pKa (physchem [8]): 8.85; solubility thermodynamic (physchem [10]): 74.1 µM (≈ 29.8 µg/mL) |
| Cc1nnc(C(=O)NC(C)(C)c2nc(C(=O)NCc3ccc(F)cc3)c(O)c(=O)n2C)o1 | – | – | – | – | – | – | pKa (physchem [1]): 3.97 |
| C[C@H](CO)Nc1[nH]c(SCc2ccccc2F)nc2nc(=O)sc1-2 | – | – | 3 | 30.1 µL/min/1e6 cells | 0.0171 | 28 µL/min/1e6 cells | microsomal CLint (in vitro [4]; liver microsomes): 3 µL/min/mg; solubility thermodynamic (physchem [10]): 8.1 µM (≈ 2.97 µg/mL) |
| CCOC(=O)N1CCC(c2cc(=O)n(-c3ccccc3)[nH]2)CC1 | – | – | – | – | – | – | pKa (physchem [1]): 6.8 |

| Structure (SMILES) | fraction unbound at 5 h (in vitro [2]) | fraction unbound at 5 h (in vitro [3]; PPB) | logD (physchem [5]; pH 7.4, LogD7.4) | hepatocyte CLint (in vitro [6]) | fraction unbound at 5 h (in vitro [7]) | hepatocyte CLint (in vitro [9]) | further results |
| --- | --- | --- | --- | --- | --- | --- | --- |
| O=C(O)c1coc2ccccc2c1=O | – | – | – | – | – | – | pKa (physchem [1]): 4 |
| CC1=NN(C(=O)CCS)C(C(=O)O)S1 (stereo unspecified) | – | – | – | – | – | – | pKa (physchem [1]): 2.4 |
| CCN(CC)CCN1C(=O)[C@@](O)(c2ccccc2Cl)c2c1cc(C(N)=O)cc2C(F)(F)F | 0.212 | – | – | 11.5 µL/min/1e6 cells | 0.19 | 56.2 µL/min/1e6 cells | fraction unbound at 5 h (in vitro [3]): 0.289; microsomal CLint (in vitro [4]; microsomes): 93.3 µL/min/mg; logD (physchem [5]; pH 7.4): 2.4 |
| CCN(CC)CCN1C(=O)C(O)(c2ccccc2Cl)c2c1cc(C(N)=O)cc2C(F)(F)F (stereo unspecified) | – | – | – | 15.1 µL/min/1e6 cells | 0.212 | – | – |
| Cc1n[nH]c(C)c1Cc1sc2c(c1C(=O)N1C[C@H](O)CO1)c(=O)n(C)c(=O)n2CC(C)C | – | 0.489 | 1.07 | – | 0.656 | – | microsomal CLint (in vitro [4]; liver microsomes): 4 µL/min/mg; pKa (physchem [8]): 3.4 |
| O=C(NCC12CC3CC(CC(C3)C1)C2)c1cc(OC2CCNCC2)ccc1Cl | – | – | 1.83 | – | 0.0768 | – | microsomal CLint (in vitro [4]; microsomes): 28 µL/min/mg; pKa (physchem [8]): 9 |
| C[C@H](CO)Nc1nc(SCc2ccccc2)nc2[nH]c(=O)sc12 | – | 0.0029 | 2.86 | 19.4 µL/min/1e6 cells | 0.0219 | < 3 µL/min/1e6 cells | microsomal CLint (in vitro [4]; liver microsomes): 4 µL/min/mg; solubility thermodynamic (physchem [10]): 53.7 µM (≈ 18.7 µg/mL) |
| O=C(NCC12CC3CC(CC(C3)C1)C2)c1cc(N2CCNCC2)ncc1Cl | – | – | – | – | 0.0736 | – | microsomal CLint (in vitro [4]; liver microsomes): 10 µL/min/mg; pKa (physchem [8]): 8.5 |
| COc1ccc(CCN2C(=O)N(NS(C)(=O)=O)C[C@@H]2c2ccc(OC)cc2)cc1 | 0.0191 | 0.0477 | – | 19.1 µL/min/1e6 cells | 0.0854 | – | – |
| COc1ccc(CCN2C(=O)N(NS(C)(=O)=O)C[C@H]2c2ccc(OC)cc2)cc1 | 0.0568 | 0.0633 | – | 21.9 µL/min/1e6 cells | 0.089 | – | – |
| N#Cc1sccc1NS(=O)(=O)c1ccc(Cl)cc1 | – | – | – | – | – | – | pKa (physchem [1]): 5.1 |
| CCCC(=O)Nc1ccc(OCC(O)CNC(C)C)c(C(C)=O)c1 (stereo unspecified) [ACEBUTOLOL] | 0.711 | – | – | – | 0.788 | – | pKa (physchem [8]): 9.45 |
| CC1(C)S[C@@H]2[C@H](NC(=O)[C@H](NC(=O)N3CCNC3=O)c3ccccc3)C(=O)N2[C@H]1C(=O)O [AZLOCILLIN] | – | – | – | – | – | – | pKa (physchem [1]): 2.41 |
| CC(C)NCC(O)COc1ccc(COCCOC(C)C)cc1 (stereo unspecified) [BISOPROLOL] | 0.768 | – | 0.1 | – | 0.743 | 25.1 µL/min/1e6 cells | pKa (physchem [8]): 9.87 |
| COc1cc(-n2cnc3cc(-c4ccc(Cl)cc4)sc3c2=O)ccc1OC[C@H](OP(=O)(O)O)C1CC1 [BMS-830216] | – | 0.0061 | -0.04 | 12.3 µL/min/1e6 cells | 0.0084 | – | microsomal CLint (in vitro [4]; liver microsomes): < 3 µL/min/mg |
| Cn1nnnc1SCC1=C(C(=O)O)N2C(=O)[C@@H](NC(=O)[C@H](O)c3ccccc3)[C@H]2SC1 [CEFAMANDOLE] | – | – | – | – | – | – | pKa (physchem [1]): 3.29 |
| CCC(=O)O[C@]1(C(=O)SCF)[C@H](C)C[C@H]2[C@@H]3C[C@H](F)C4=CC(=O)C=C[C@]4(C)[C@@]3(F)[C@@H](O)C[C@@]21C [FLUTICASONE PROPIONATE] | 0.0153 | 0.0191 | – | > 150 µL/min/1e6 cells | 0.0116 | 107 µL/min/1e6 cells | – |
| CC(C)(N)C(=O)N[C@H](COCc1ccccc1)C(=O)N1CCC2(CC1)CN(S(C)(=O)=O)c1ccccc12 [IBUTAMOREN] | 0.253 | 0.232 | 1.4 | 14.4 µL/min/1e6 cells | 0.212 | – | – |
| CCCCC1=NC2(CCCC2)C(=O)N1Cc1ccc(-c2ccccc2-c2nnn[nH]2)cc1 [IRBESARTAN] | – | – | – | 10.5 µL/min/1e6 cells | 0.0146 | 9.01 µL/min/1e6 cells | microsomal CLint (in vitro [4]; microsomes): 17.8 µL/min/mg; solubility thermodynamic (physchem [10]): 891 µM (≈ 382 µg/mL) |
| Cc1ncc2n1-c1ccc(Cl)cc1C(c1ccccc1F)=NC2 [MIDAZOLAM] | 0.0457 | – | – | 32.4 µL/min/1e6 cells | 0.02 | 121 µL/min/1e6 cells | fraction unbound at 5 h (in vitro [3]): 0.0175; pKa (physchem [8]): 6.11; solubility thermodynamic (physchem [10]): 72.4 µM (≈ 23.6 µg/mL) |
| CCNC(=O)C[C@@H]1N=C(c2ccc(Cl)cc2)c2cc(OC)ccc2-n2c(C)nnc21 [MOLIBRESIB] | 0.314 | – | – | – | 0.324 | 10.2 µL/min/1e6 cells | fraction unbound at 5 h (in vitro [3]): 0.24; microsomal CLint (in vitro [4]; microsomes): 14.1 µL/min/mg; pKa (physchem [8]): 2.1 |
| COC(=O)C1=C(C)NC(C)=C(C(=O)OCCN(C)Cc2ccccc2)C1c1cccc([N+](=O)[O-])c1 (stereo unspecified) [NICARDIPINE] | 0.0039 | – | – | – | 0.004 | – | pKa (physchem [8]): 7.26; solubility thermodynamic (physchem [10]): 7.4 µM (≈ 3.55 µg/mL) |
| CC[C@H](C)C(=O)O[C@H]1C[C@H](O)C=C2C=C[C@H](C)[C@H](CC[C@@H](O)C[C@@H](O)CC(=O)O)[C@H]21 [PRAVASTATIN] | 0.349 | – | -0.76 | < 3 µL/min/1e6 cells | 0.608 | 27 µL/min/1e6 cells | microsomal CLint (in vitro [4]; microsomes): < 3 µL/min/mg |
| CC(C)(C)NC(=O)c1ccc(Oc2cc(F)c(CC(=O)O)cc2Cl)c(NS(=O)(=O)c2ccc(C3CC3)cc2Cl)c1 [VIDUPIPRANT] | – | 0.0015 | – | 6 µL/min/1e6 cells | 0.0039 | 6 µL/min/1e6 cells | microsomal CLint (in vitro [4]; liver microsomes): < 3 µL/min/mg; solubility thermodynamic (physchem [10]): 851 µM (≈ 519 µg/mL) |
